From patent US8026359B2, “Fungicidal heterocyclic amines” (E.I. du Pont de Nemours and Company, priority 2007, dated 2011)

Key:
Format in all cases: in vivo
[1] = tested on: Septoria nodorum; test: Test C: wheat glume blotch, preventive spray on wheat seedlings; settings: 200 ppm, 100 = 100% disease control, 0 = no control relative to controls; for pest or weed control at 200 ppm: Parastagonospora nodorum, 216 h, read-out: Test C disease control rating
Source text: (§1) General protocol for preparing test suspensions for Tests A-R: The test compounds were first dissolved in acetone in an amount equal to 3% of the final volume and then suspended at the desired concentration (in ppm) in acetone and purified water (50/50 mix) containing 250 ppm of the surfactant Trem® 014 (polyhydric alcohol esters). The resulting test suspensions were then used in tests A-R. In Tests A-M, compounds were sprayed as a 200 ppm test suspension (equivalent to a rate of 500 g/ha) or as a 40 ppm test suspension to the point of runoff on the test plants. In Tests N-R, compounds were sprayed as a 100 g/ha test suspension (equivalent to a rate of 100 ppm) on the test plants at an application volume of 1000 L/ha. The test suspension was sprayed to the point of run-off on wheat seedlings.

[2] = tested on: Botrytis cinerea; test: Test F: tomato Botrytis, preventive spray on tomato seedlings; settings: 200 ppm, 100 = 100% disease control, 0 = no control relative to controls; for pest or weed control at 200 ppm: Botrytis cinerea, 120 h, read-out: Test F disease control rating
Source text: as §1, with “tomato” for “wheat”

[3] = tested on: Fusarium graminearum; test: whole plant or invertebrate; settings: for Test E disease control rating: 200 ppm, 100 = 100% disease control, 0 = no control relative to controls; for pest or weed control at 200 ppm: Fusarium graminearum, in Triticum aestivum, 192 h, read-out: Test E disease control rating
[4] = tested on: Puccinia recondita f. sp. tritici; test: Test B: wheat leaf rust, preventive spray on wheat seedlings; settings: 200 ppm, 100 = 100% disease control, 0 = no control relative to controls; for pest or weed control at 200 ppm: Puccinia recondita, 192 h, read-out: Test B disease control rating
Source text: as §1

[5] = tested on: Erysiphe graminis f. sp. tritici; test: Test A: wheat powdery mildew, preventive spray on wheat seedlings; settings: 200 ppm, 100 = 100% disease control, 0 = no control relative to controls; for pest or weed control at 200 ppm: Blumeria graminis, 192 h, read-out: Test A disease control rating
Source text: as §1

[6] = tested on: Septoria tritici; test: Test D: wheat leaf blotch, preventive spray on wheat seedlings; settings: 200 ppm, 100 = 100% disease control, 0 = no control relative to controls; for pest or weed control at 200 ppm: Zymoseptoria tritici, 504 h, read-out: Test D disease control rating
Source text: as §1

[7] = tested on: Colletotrichum orbiculare; test: Test I: cucumber Colletotrichum anthracnose, preventive spray on cucumber seedlings; settings: 100 = 100% disease control, 0 = no control relative to controls; for Test I disease control rating: 200 ppm; for pest or weed control at 200 ppm: Colletotrichum orbiculare, 144 h, read-out: Test I disease control rating
Source text: as §1, with “cucumber” for “wheat”

SMILES	Test C disease control rating [1] [%]	Test F disease control rating [2] [%]	Test E disease control rating [3] [%]	Test B disease control rating [4] [%]	Test A disease control rating [5] [%]	Test D disease control rating [6] [%]	Test I disease control rating [7] [%]	pest or weed control at 200 ppm [7] [%]	pest or weed control at 200 ppm [1] [%]	pest or weed control at 200 ppm [2] [%]	pest or weed control at 200 ppm [3] [%]	pest or weed control at 200 ppm [4] [%]	pest or weed control at 200 ppm [5] [%]	pest or weed control at 200 ppm [6] [%]
COC[C@@H](C)Nc1nccc(-c2ccnc(Nc3cccc(F)c3)c2)n1 [Compound 68]	99	93	0	95	0	96								
COCC(C)Nc1nccc(-c2ccnc(Nc3cc(F)ccc3C)c2)n1 (stereo not drawn) [Compound 91]	94	98	19	99	97	7	0							
Fc1cccc(Nc2cc(-c3ccnc(NC4CC4)n3)ccn2)c1 [Compound 65]	96	0	0	80	46	0	83							
COCC(C)Nc1nccc(-c2ccnc(Nc3ccnc(Cl)c3)c2)n1 (stereo not drawn) [Compound 54]	64	85	0	96	0	35	0							
Fc1cccc(Nc2cc(-c3ccnc(NC4CCCOC4)n3)ccn2)c1 (stereo not drawn) [Compound 75]	89	90	0	83	0	28	9							
COCCCNc1nccc(-c2ccnc(Nc3cccc(F)c3)c2)n1 [Compound 64]	97	0	0	94	0	95	92							
COCC(C)Nc1nccc(-c2ccnc(Nc3c(F)cccc3Cl)c2)n1 (stereo not drawn) [Compound 79]	99	94	0	99	0	5	96							
COCC(C)Nc1nccc(-c2ccnc(Nc3c(C)cccc3Cl)c2)n1 (stereo not drawn) [Compound 76, 4-[2-[(2-chloro-6-methylphenyl)amino]-4-pyridinyl]-N-(2-methoxy-1-methylethyl)-2-pyrimidinamine]								72	99	97	93	99	36	87
Clc1cccc(Nc2ncnc(-c3ccnc(NC4CCOCC4)n3)n2)c1 [Compound 4, N-(3-chlorophenyl)-4-[2-[(tetrahydro-2H-pyran-4-yl)amino]-4-pyrimidinyl]-1,3,5-triazin-2-amine]								66	99	0	0	91	0	11
CCNNc1nccc(-c2ccnc(Nc3cccc(F)c3)c2)n1 [Compound 66]	99	84	64	85	0	92								
COCC(C)Nc1nccc(-c2ccnc(Nc3cccc(C(=O)OC)c3)c2)n1 (stereo not drawn) [Compound 52]	90	98	0	94	0	31	0							
COC[C@H](C)Nc1nccc(-c2ncnc(Nc3cncc(F)c3)n2)n1 [Compound 35]	98	91	98	100	72	7								
Fc1cccc(Nc2cc(-c3ccnc(NCC4CCCO4)n3)ccn2)c1 (stereo not drawn) [Compound 83, 4-[2-[(3-fluorophenyl)amino]-4-pyridinyl]-N-[(tetrahydro-2-furanyl)methyl]-2-pyrimidinamine]								0	99	53	0	95	0	92
COCC(C)Nc1nccc(-c2ccnc(Nc3c(C)cc(C)cc3Cl)c2)n1 (stereo not drawn) [Compound 87]	100	96	0	95	87	49	88							
CCCC(C)Nc1nccc(-c2ccnc(Nc3cccc(F)c3)c2)n1 (stereo not drawn) [Compound 59]	99	57	0		87	0	0							
Fc1cccc(Nc2cc(-c3ccnc(NC4CCOC4)n3)ccn2)c1 (stereo not drawn) [Compound 74]	99	48	0	94	0	72	17							
